Measured values published in article PMC5026067, “Substrate Fragmentation for the Design of M. tuberculosis CYP121 Inhibitors” (Chemmedchem, 2016).
Read-outs that look alike come from different tables or passages of the source.

What was measured:
Type in all cases: binding
Mtb CYP121 [1] = target: T1, Mtb CYP121 (Mycobacterium tuberculosis, UniProt P9WPP7); experiment: UV/vis optical titration (Soret shift)
From the text: UV/vis optical titration (Soret shift) on Mtb CYP121

CYP124 = CYP124 (Mycobacterium tuberculosis, UniProt P9WPP3); experiment: UV/vis Soret shift; conditions: […] ligand, […] DMSO, weak blue shift
Chain of CYP124 (P9WPP3 whole entry): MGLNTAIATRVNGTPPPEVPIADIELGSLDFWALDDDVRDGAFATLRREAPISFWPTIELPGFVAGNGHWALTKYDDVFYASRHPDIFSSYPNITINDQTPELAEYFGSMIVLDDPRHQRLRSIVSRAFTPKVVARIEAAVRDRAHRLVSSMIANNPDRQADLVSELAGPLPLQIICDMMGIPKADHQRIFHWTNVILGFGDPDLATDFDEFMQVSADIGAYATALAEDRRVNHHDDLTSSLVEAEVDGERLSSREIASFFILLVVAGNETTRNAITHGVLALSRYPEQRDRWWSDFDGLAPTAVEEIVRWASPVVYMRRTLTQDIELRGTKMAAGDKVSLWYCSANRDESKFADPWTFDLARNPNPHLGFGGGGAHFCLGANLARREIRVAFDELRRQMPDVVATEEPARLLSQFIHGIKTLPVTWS

CYP142 = CYP142 (Mycobacterium tuberculosis, UniProt P9WPL5); experiment: UV/vis Soret shift; conditions: 2000 µM; […] ligand, […] DMSO; type II
Chain of CYP142 (P9WPL5 whole entry): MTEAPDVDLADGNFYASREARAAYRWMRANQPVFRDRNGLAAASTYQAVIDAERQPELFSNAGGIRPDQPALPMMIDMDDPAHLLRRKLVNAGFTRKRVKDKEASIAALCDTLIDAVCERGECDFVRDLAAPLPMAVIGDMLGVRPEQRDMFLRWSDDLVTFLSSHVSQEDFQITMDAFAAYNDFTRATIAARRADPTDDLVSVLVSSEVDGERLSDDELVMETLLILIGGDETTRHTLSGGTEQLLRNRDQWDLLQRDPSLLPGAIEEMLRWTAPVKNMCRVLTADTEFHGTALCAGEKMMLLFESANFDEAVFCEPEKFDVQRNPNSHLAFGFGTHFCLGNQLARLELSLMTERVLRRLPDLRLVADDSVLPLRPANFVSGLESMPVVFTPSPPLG
From the text: UV/vis Soret shift on CYP142

Mtb CYP121 [2] = target: T1, Mtb CYP121; experiment: thermal shift assay
From the text: thermal shift assay on Mtb CYP121

T1 sequence (P9WPP7 whole entry): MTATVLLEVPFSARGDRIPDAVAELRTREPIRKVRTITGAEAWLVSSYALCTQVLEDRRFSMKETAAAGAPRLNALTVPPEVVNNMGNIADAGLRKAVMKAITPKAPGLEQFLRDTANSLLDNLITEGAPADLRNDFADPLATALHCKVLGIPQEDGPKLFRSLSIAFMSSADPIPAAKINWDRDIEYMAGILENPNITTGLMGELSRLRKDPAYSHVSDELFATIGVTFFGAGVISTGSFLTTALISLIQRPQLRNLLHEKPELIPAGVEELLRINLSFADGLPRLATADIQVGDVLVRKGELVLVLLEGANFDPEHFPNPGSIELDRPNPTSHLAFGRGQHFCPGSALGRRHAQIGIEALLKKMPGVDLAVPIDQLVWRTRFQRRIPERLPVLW

N[C@H](Cc1c[nH]c2ccccc12)C(=O)OC/C=C/c1ccccc1 [compound 20, compound 20 (trans-alkene)]
Kd (Mtb CYP121 [1]; read-out: K d [μM]^[b]): 120 ± 21 µM

NC(Cc1ccccc1Br)C(=O)SCCc1ccccc1 (stereo not shown) [compound 30, 2-bromophenylalanine derivative 30]
Kd (Mtb CYP121 [1]; read-out: K d [μM]^[b]): 30 ± 3.8 µM

N[C@H](Cc1c[nH]c2ccccc12)C(=O)NCCc1ccc(O)cc1 [compound 7, acyclic cYW-7]
Kd (Mtb CYP121 [1]; read-out: K d [μM]^[b]): 260 ± 14 µM

NC(Cc1c[nH]c2ccc(Br)cc12)C(=O)SCCc1ccccc1 (racemic) [compound 31, compound 31 (5-bromo-tryptophan phenethyl-thioester)]
CYP124 (CYP124; 10 µM): −2 nm
Kd (Mtb CYP121 [1]; read-out: K d [μM]^[b]): 16 ± 2.4 µM

N[C@H](Cc1c[nH]c2ccccc12)c1nc(Cc2c[nH]c3ccccc23)cs1 [compound 18, indole-substituted thiazole 18]
Kd (Mtb CYP121 [1]; read-out: K d [μM]^[b]): 52 ± 3.1 µM

NC(Cc1c[nH]c2ncccc12)C(=O)SCCc1ccccc1 (racemic) [compound 27, aza-tryptophan analogue 27]
Kd (Mtb CYP121 [1]; read-out: K d [μM]^[b]): 110 ± 9.1 µM

COC(=O)[C@H](N)Cc1c[nH]c2ccccc12 [1a, D-tryptophan methyl ester]
CYP142 (CYP142): +2 nm
Kd (Mtb CYP121 [1]; read-out: K d [μM]^[b]): 840 ± 88 µM

N[C@H](Cc1c[nH]c2ccccc12)C(=O)SCC1CC(c2ccccc2)=NO1 (stereo partly shown) [compound 25, phenyl-isoxazole-substituted compound 25]
Kd (Mtb CYP121 [1]; read-out: K d [μM]^[b]): 35 ± 4.2 µM

NC(Cc1c[nH]c2ccc(Br)cc12)c1nc(-c2ccccc2)cs1 (racemic) [compound 32, compound 32 (5-bromo-tryptophan phenyl-thiazole)]
Kd (Mtb CYP121 [1]; read-out: K d [μM]^[b]): 32 ± 2.5 µM

N[C@H](Cc1c[nH]c2ccccc12)C(=O)NCCc1c[nH]c2ccccc12 [compound 9, acyclic cWW-9]
CYP124 (CYP124; 100 µM): −2 nm
Kd (Mtb CYP121 [1]; read-out: K d [μM]^[b]): 110 ± 6 µM

N[C@H](Cc1c[nH]c2ccccc12)c1nc(-c2ccccc2)cs1 [compound 13, thiazole 13]
Kd (Mtb CYP121 [1]; read-out: K d [μM]^[b]): 44 ± 3.6 µM

N[C@H](Cc1c[nH]c2ccccc12)C(=O)NCCc1ccccc1 [compound 8, acyclic cWF-8]
Kd (Mtb CYP121 [1]; read-out: K d [μM]^[b]): 270 ± 22 µM

N[C@H](Cc1c[nH]c2ccccc12)c1nc(-c2ccccc2)c[nH]1 [compound 14, imidazole 14]
Kd (Mtb CYP121 [1]): 530 ± 100 µM

N[C@H](Cc1c[nH]c2ccccc12)C(=S)NCCc1ccccc1 [compound 12, thioamide 12]
Kd (Mtb CYP121 [1]; read-out: K d [μM]^[b]): 150 ± 18 µM

N[C@@H](Cc1c[nH]c2ccccc12)C(=O)OCCc1ccccc1 [compound 3, L-phenethyl ester 3]
Kd (Mtb CYP121 [1]; read-out: K d [μM]^[b]): 200 ± 19 µM

N[C@H](Cc1c[nH]c2ccccc12)C(=O)OCCc1ccccc1 [compound 2, phenethyl ester 2]
Kd (Mtb CYP121 [1]; read-out: K d [μM]^[b]): 200 ± 17 µM

COC(=O)[C@H](N)Cc1ccc(O)cc1 [1b, D-tyrosine methyl ester]
ΔTm at 5000 µM (Mtb CYP121 [2]): 3 °C

NC(Cc1c[nH]c2ccc(O)cc12)C(=O)SCCc1ccccc1 (racemic) [compound 26, compound 26 (5-hydroxy indole)]
Kd (Mtb CYP121 [1]; read-out: K d [μM]^[b]): 130 ± 9.3 µM

N[C@H](Cc1c[nH]c2ccccc12)C(=O)SCCc1c[nH]c2ccccc12 [compound 17, indole-substituted thioester 17]
Kd (Mtb CYP121 [1]; read-out: K d [μM]^[b]): 45 ± 4.4 µM
